Key:
Assay type in all cases: cell-based, human
[1] = tested on: Patient B2 breast cancer cells; test: CELx Anti-Proliferative test, impedance biosensor CReMS; conditions: continuous recording
Description: (§1) A CELx Anti-Proliferative test was performed using cells from two breast cancer patients (Patients B1 and B2) and the drug Paclitaxel. The physiologic change of the Bland B2 cells during the test was measured with an impedance biosensor CReMS and the output from the CReMS is recorded in FIGS. 2A and 2B. The comparison of the CELx test results and the third party clinical reference is recorded in FIG. 2C.
(§2) The CReMS, microplate, reagents, and buffers used in Example 1 are the same as those employed in Example 2, except for the therapeutic agent tested. In Example 2, the therapeutic agent, paclitaxel, was tested. Paclitaxel was purchased from Selleck Chemicals (TX, USA).
(§3) Between 6,000-12,000 cells in each well were seeded onto the impedance microplate containing 120 uL settling media with serum. Forty microliters of the drug paclitaxel were added to one set each of the B1 and B2 cells; another control set of B1 and B2 cells received no drug. The CReMS recording of physiologic change was maintained continuously from when the cells were first seeded on the microplate through complete cellular response, which was between 48-72 hours. The test was performed at 37° C., 5% CO2 and at 75% relative humidity.

[2] = tested on: Patient B1 breast cancer cells; test: as above; conditions: continuous recording throughout the test period, untreated control cells
Description: as §1, §2, §3

[3] = tested on: breast cancer patient cells; test: CELx Pathway Shutdown single drug test (Example 4), impedance biosensor CReMS; conditions: one patient breast cancer cell sample expected to be a responder
Description: Between 6,000-12,000 cells in each well were seeded onto the impedance microplate containing 120 uL standard media with serum. The solution was replaced with media containing no serum to synchronize the cells with respect to physiologic state and pathway stimulation. Twenty microliters of drugs were added to the no-serum media two hours in advance of pathway stimulation. Pathway stimulation was initiated using EC80 doses of receptor ligand (typically 6 nM in 20 uL). The CReMS recording of physiologic change was maintained continuously for several hours from buffer exchange through complete cellular response to the pathway stimulation. The pathway test was performed at 37° C., 5% CO2 and at a relative humidity 75%.
The physiologic change of the cells and drugs tested was measured with an impedance biosensor CReMS and the summary output from the CReMS is recorded in FIG. 4. The correlation between these CELx test results and the third party clinical reference is recorded in FIG. 7.
In those experiments involving anti-proliferative drugs (capecitabine, docetaxel, fluorouracil, paclitaxel, topotecan, cisplatin, and oxiliplatin), the procedures described in Example 2 were utilized. In those experiments involving a combination of drugs, the procedures described in Example 3 were utilized. The list of patient cells and the drug tested with the cells is characterized in FIG. 4.

[4] = tested on: Patient C2 colon cancer cells; test: CELx Combination test, impedance biosensor CReMS; conditions: Patient C2 cells (printed Patient 2), single drug
Description: The physiologic change of the C1 and C2 cells during the test was measured with an impedance biosensor CReMS and the output from the CReMS is recorded in FIGS. 3A and 3B.
Between 6,000-12,000 cells in each well were seeded into the impedance microplate containing 120 uL settling media with serum. The solution was replaced with media containing no serum to synchronize the cells with respect to physiologic state. […] The CReMS recording of physiologic change was maintained continuously from when the cells were first seeded on the microplate through complete cellular response, which was between 48-72 hours. The test was performed at 37° C., 5% CO2 and at 75% relative humidity.

[5] = tested on: Patient B1 HER2 overexpressing breast cancer cells; test: CELx Pathway Shutdown test, impedance biosensor CReMS, EGF stimulation; conditions: drug added two hours before EGF pathway stimulation, compared to stimulation with no drug
Excerpt: The change in impedance for a particular well is proportional to the number of cells and type of attachment the cells have with the impedance microplate. Changes in impedance indicate a response to perturbation of these small cell populations.
Prior to addition to the impedance microplate, the cells were removed from their growth container with versene, counted, and re-suspended in media without serum or other growth factors.
The solution was replaced with media containing no serum to synchronize the cells with respect to physiologic state and pathway stimulation. Twenty microliters of drugs were added to the no-serum media two hours in advance of pathway stimulation.

Structure (SMILES): CC(=O)O[C@H]1C(=O)[C@@]2(C)[C@H]([C@H](OC(=O)c3ccccc3)[C@]3(O)C[C@H](OC(=O)[C@H](O)[C@@H](NC(=O)c4ccccc4)c4ccccc4)C(C)=C1C3(C)C)[C@]1(OC(C)=O)CO[C@@H]1C[C@@H]2O [Paclitaxel]
- time after which CReM output reverses (test cells begin proliferating, no longer responsive) [1]: roughly 24 hours
- responsiveness: decrease in CReM output compared to control cells ([1]; untreated control cells): initial responsiveness
- responsiveness: decrease in CReM output compared to control cells [2]: immediate and continuous responsiveness

Structure (SMILES): COc1cc2ncnc(Nc3ccc(F)c(Cl)c3)c2cc1OCCCN1CCOCC1 [gelfitinib, gefitinib]
- response in the CReMS testing [3]: did not show a response

Structure (SMILES): CCc1c2c(nc3ccc(OC(=O)N4CCC(N5CCCCC5)CC4)cc13)-c1cc3c(c(=O)n1C2)COC(=O)[C@]3(O)CC [irinotecan, Irinotecan]
- responsiveness to each individual drug [4]: responsive

Structure (SMILES): CS(=O)(=O)CCNCc1ccc(-c2ccc3ncnc(Nc4ccc(OCc5cccc(F)c5)c(Cl)c4)c3c2)o1 [lapatinib, Lapatinib]
- change (decrease) of cell index of the test cells after drug added [5]: over 50%

Source: US10976307B2, “Whole cell assays and methods” (Celcuity Inc., priority 2012, dated 2021)
